Measurements published in ChEMBL document CHEMBL3792297, “Studies on phenothiazines: New microtubule-interacting compounds with phenothiazine A-ring as potent antineoplastic agents” (Bioorg Med Chem, 2016).

How the values were obtained:
U-251 = test: Growth inhibition of human U251 cells at 10 uM after 48 hrs by SRB assay relative to control; assay type: functional; details: U-251, 48 h, read-out: GI
[1] = Growth inhibition of human HOP62 cells at 10 uM after 48 hrs by SRB assay relative to control; assay type: functional; details: HOP-62, 48 h, read-out: GI
T47D = test: Growth inhibition of human T47D cells at 10 uM after 48 hrs by SRB assay relative to control; assay type: functional; details: read-out: GI
[2] = Growth inhibition of human SF539 cells after 48 hrs by SRB assay; assay type: functional; details: SF-539, 48 h
M14 [3] = test: Growth inhibition of human M14 cells after 48 hrs by SRB assay; assay type: functional; details: M14, 48 h
[4] = Growth inhibition of human NCI-ADR-RES cells at 10 uM after 48 hrs by SRB assay relative to control; assay type: functional; details: read-out: GI
Malme-3M = test: Growth inhibition of human MALME-3M cells at 10 uM after 48 hrs by SRB assay relative to control; assay type: functional; details: read-out: GI
[5] = Growth inhibition of human PC3 cells after 48 hrs by SRB assay; assay type: functional; details: PC-3, 48 h
MDA-MB-435 = test: Growth inhibition of human MDA-MB-435 cells after 48 hrs by SRB assay; assay type: functional; details: MDA-MB-435, 48 h
[6] = Growth inhibition of human NCI-ADR-RES cells after 48 hrs by SRB assay; assay type: functional
MCF7 = test: Growth inhibition of human MCF7 cells after 48 hrs by SRB assay; assay type: functional; details: MCF7, 48 h
[7] = Growth inhibition of human HCT15 cells after 48 hrs by SRB assay; assay type: functional; details: HCT-15, 48 h
[8] = Growth inhibition of human Hs 578T cells after 48 hrs by SRB assay; assay type: functional
SR = test: Growth inhibition of human SR cells after 48 hrs by SRB assay; assay type: functional
Ovis aries = species: Ovis aries; test: Inhibition of sheep brain tubulin polymerization at 100 uM by DAPI staining-based fluorimetric method
[9] = Growth inhibition of human COLO205 cells after 48 hrs by SRB assay; assay type: functional; details: COLO 205, 48 h
[10] = Growth inhibition of human DU145 cells at 10 uM after 48 hrs by SRB assay relative to control; assay type: functional; details: DU-145, 48 h, read-out: GI
SK-MEL-5 = test: Growth inhibition of human SK-MEL-5 cells after 48 hrs by SRB assay; assay type: functional; details: SK-MEL-5, 48 h
[11] = Growth inhibition of human SF295 cells after 48 hrs by SRB assay; assay type: functional; details: SF-295, 48 h
[12] = Growth inhibition of human Hs 578T cells at 10 uM after 48 hrs by SRB assay relative to control; assay type: functional; details: read-out: GI
[13] = Growth inhibition of human RXF393 cells at 10 uM after 48 hrs by SRB assay relative to control; assay type: functional; details: RXF 393, 48 h, read-out: GI
[14] = Growth inhibition of human SKOV3 cells after 48 hrs by SRB assay; assay type: functional; details: SK-OV-3, 48 h
[15] = Growth inhibition of human OVCAR8 cells at 10 uM after 48 hrs by SRB assay relative to control; assay type: functional; details: OVCAR-8, 48 h, read-out: GI
[16] = Growth inhibition of human SF268 cells at 10 uM after 48 hrs by SRB assay relative to control; assay type: functional; details: SF-268, 48 h, read-out: GI
[17] = Growth inhibition of human LOXIMVI cells at 10 uM after 48 hrs by SRB assay relative to control; assay type: functional; details: LOX IMVI, read-out: GI
SN12C = test: Growth inhibition of human SN12C cells at 10 uM after 48 hrs by SRB assay relative to control; assay type: functional; details: read-out: GI
NCI-H522 = test: Growth inhibition of human NCI-H522 cells after 48 hrs by SRB assay; assay type: functional; details: NCI-H522, 48 h
[18] = Growth inhibition of human SF295 cells at 10 uM after 48 hrs by SRB assay relative to control; assay type: functional; details: SF-295, 48 h, read-out: GI
[19] = Growth inhibition of human HCT116 cells after 48 hrs by SRB assay; assay type: functional; details: HCT-116, 48 h
[20] = Growth inhibition of human OVCAR3 cells at 10 uM after 48 hrs by SRB assay relative to control; assay type: functional; details: OVCAR-3, 48 h, read-out: GI
[21] = Growth inhibition of human HCC2998 cells after 48 hrs by SRB assay; assay type: functional; details: HCC 2998, 48 h
A498 = test: Growth inhibition of human A498 cells after 48 hrs by SRB assay; assay type: functional; details: A498, 48 h
[22] = Growth inhibition of human HCC2998 cells at 10 uM after 48 hrs by SRB assay relative to control; assay type: functional; details: HCC 2998, 48 h, read-out: GI
[23] = Growth inhibition of human MOLT4 cells at 10 uM after 48 hrs by SRB assay relative to control; assay type: functional; details: MOLT-4, 48 h, read-out: GI
K562 = test: Growth inhibition of human K562 cells after 48 hrs by SRB assay; assay type: functional; details: K562, 48 h
[24] = Growth inhibition of human Caki1 cells after 48 hrs by SRB assay; assay type: functional; details: CAKI-1, 48 h
[25] = Growth inhibition of human RPMI8226 cells at 10 uM after 48 hrs by SRB assay relative to control; assay type: functional; details: RPMI-8226, 48 h, read-out: GI
[26] = Inhibition of sheep brain tubulin polymerization by DAPI staining-based fluorimetric method; design: species or system Ovis aries
SK-MEL-2 = test: Growth inhibition of human SK-MEL-2 cells after 48 hrs by SRB assay; assay type: functional; details: SK-MEL-2, 48 h
ACHN = test: Growth inhibition of human ACHN cells at 10 uM after 48 hrs by SRB assay relative to control; assay type: functional; details: read-out: GI
[27] = Growth inhibition of human OVCAR8 cells after 48 hrs by SRB assay; assay type: functional; details: OVCAR-8, 48 h
[28] = Growth inhibition of human SNB75 cells at 10 uM after 48 hrs by SRB assay relative to control; assay type: functional; details: SNB-75, 48 h, read-out: GI
[29] = Growth inhibition of human UO31 cells at 10 uM after 48 hrs by SRB assay relative to control; assay type: functional; details: UO-31, 48 h, read-out: GI
[30] = Growth inhibition of human UO31 cells after 48 hrs by SRB assay; assay type: functional; details: UO-31, 48 h
M14 [31] = test: Growth inhibition of human M14 cells at 10 uM after 48 hrs by SRB assay relative to control; assay type: functional; details: M14, 48 h, read-out: GI
[32] = Growth inhibition of human OVCAR3 cells after 48 hrs by SRB assay; assay type: functional; details: OVCAR-3, 48 h
[33] = Growth inhibition of human OVCAR5 cells after 48 hrs by SRB assay; assay type: functional; details: OVCAR-5, 48 h

## COc1ccc(C(=O)N2c3ccccc3Sc3ccccc32)c(F)c1
U-251
  inhibition of growth at 10 µM: 66%
[1]
  inhibition of growth at 10 µM: 63%
T47D
  inhibition of growth at 10 µM: 60%
[2]
  GI50: 409 nM
M14 [3]
  GI50: 371 nM
[4]
  inhibition of growth at 10 µM: 98%
Malme-3M
  inhibition of growth at 10 µM: 53%
[5]
  GI50: 407 nM
MDA-MB-435
  GI50: 177 nM
[6]
  GI50: 517 nM
MCF7
  GI50: 405 nM
[7]
  GI50: 419 nM
[8]
  GI50: 377 nM
SR
  GI50: 380 nM
Ovis aries
  inhibition: 75%
[9]
  GI50: 445 nM
[10]
  inhibition of growth at 10 µM: 95%
SK-MEL-5
  GI50: 759 nM
[11]
  GI50: 395 nM
[12]
  inhibition of growth at 10 µM: 84%
[13]
  inhibition of growth at 10 µM: 100%
[14]
  GI50: 4130 nM
[15]
  inhibition of growth at 10 µM: 68%
[16]
  inhibition of growth at 10 µM: 47%
[17]
  inhibition of growth at 10 µM: 60%
SN12C
  inhibition of growth at 10 µM: 39%
NCI-H522
  GI50: 403 nM
[18]
  inhibition of growth at 10 µM: 91%
[19]
  GI50: 393 nM
[20]
  inhibition of growth at 10 µM: 100%
[21]
  GI50: 2380 nM
A498
  GI50: 330 nM
[22]
  inhibition of growth at 10 µM: 70%
[23]
  inhibition of growth at 10 µM: 73%
K562
  GI50: 442 nM
[24]
  GI50: 584 nM
[25]
  inhibition of growth at 10 µM: 81%
[26]
  IC50: 22500 nM
SK-MEL-2
  GI50: 531 nM
ACHN
  inhibition of growth at 10 µM: 52%
[27]
  GI50: 2200 nM
[28]
  inhibition of growth at 10 µM: 100%
[29]
  inhibition of growth at 10 µM: 51%
[30]
  GI50: 3780 nM
M14 [31]
  inhibition of growth at 10 µM: 98%
[32]
  GI50: 418 nM
[33]
  GI50: 3660 nM
